In test [1] the test system is serum calcium concentration. The test is described as follows: Biological assay of calcitonin analogs in vivo: reduction of serum calcium vs salmon calcitonin standard, 2x2 parallel line assay. Details: species or system Rats. As to conditions: standard salmon calcitonin used in the assay. The protocol: Biological Assay of Calcitonin Analogs in Vivo
The biological potency of des-17-histidine-salmon calcitonin was determined by comparing the reduction of serum calcium concentration which followed administration by graded doses of des-His^17 -SCT and synthetic salmon calcitonin standard. Rats were divided into four groups of seven animals, and each group was assigned at random to a dose of standard or test solution. Low and high doses were chosen from the linear portion of the dose-response curve. For the salmon calcitonin standard, the values were 0.7 and 2.1 ng. peptide/100 g. body weight (BW). This dose approximates 3 and 9 MU/100 g. BW. Peptides were given by subcutaneous injection (0.2 ml/100 g. BW) and blood was withdrawn 1 hour later for serum calcium determination. Sera are processed and analyzed within two hours of collection. […]. Results were analyzed by a 2×2 parallel line assay [Gaddum, J. H., J. Pharm. Pharmacol., 6, 345 (1953)]. The standard salmon calcitonin used was independently determined to contain greater than 4,000 IU/mg. des-His^17 -SCT assayed at 4250 IU/mg.

For test [2] the following is noted: literature value, Experientia 32(9), 1104-1106 (1976); cited from earlier work.

On to `CC(C)C[C@H](NC(=O)[C@H](CCCCN)NC(=O)CNC(=O)[C@H](CC(C)C)NC(=O)[C@@H](NC(=O)[C@@H]1CSSC[C@H](N)C(=O)N[C@@H](CO)C(=O)N[C@@H](CC(N)=O)C(=O)N[C@@H](CC(C)C)C(=O)N[C@@H](CO)C(=O)N[C@@H]([C@@H](C)O)C(=O)N1)C(C)C)C(=O)N[C@@H](CO)C(=O)N[C@@H](CCC(N)=O)C(=O)N[C@@H](CCC(=O)O)C(=O)N[C@@H](CC(C)C)C(=O)N[C@@H](Cc1c[nH]cn1)C(=O)N[C@@H](CCCCN)C(=O)N[C@@H](CC(C)C)C(=O)N[C@@H](CCC(N)=O)C(=O)N[C@H](C(=O)N[C@@H](Cc1ccc(O)cc1)C(=O)N1CCC[C@H]1C(=O)N[C@@H](CCCNC(=N)N)C(=O)N[C@H](C(=O)N[C@@H](CC(N)=O)C(=O)N[C@H](C(=O)NCC(=O)N[C@@H](CO)C(=O)NCC(=O)N[C@H](C(=O)N1CCC[C@H]1C(N)=O)[C@@H](C)O)[C@@H](C)O)[C@@H](C)O)[C@@H](C)O` [standard salmon calcitonin, Salmon calcitonin], for which the “potency content of the standard, independently determined” value in test [1] is given as “greater than 4,000 IU/mg”. With “(1,7-alpha-L-amino-suberic acid) eel calcitonin”, the hypocalcemic potency result in test [2] is reported as “about 3400 IU/mg”. Consider “eel calcitonin [synthetic eel calcitonin]”, for which the hypocalcemic potency result in test [2] is reported as “around 4300 IU/mg”.

The record behind these values is patent publication US5001222A, “Des-17-histidine-calcitonin” (Rhone-Poulenc Rorer Pharmaceuticals Inc., priority 1988, dated 1991).
